Experimental findings from US20190322676A1, “CERAMIDE GALACTOSYLTRANSFERASE INHIBITORS FOR THE TREATMENT OF DISEASE” (BioMarin Pharmaceutical Inc., priority 2016, published 2019) are described below.

Where only a bound is given, the exact number is not on record here.

This assay deals with T1, human CGT (ceramide galactosyltransferase), CHO/CGT lysate (Homo sapiens, UniProt Q16880).
T1 construct: Full-length human CGT cDNA was cloned into the BamH1/Xho1 site of pcDNA3.1 (+); expressed in transfected cells; host or cells: Chinese hamster ovary (CHO) cells; lysate prepared with M-PER
T1 sequence (Q16880 21-541): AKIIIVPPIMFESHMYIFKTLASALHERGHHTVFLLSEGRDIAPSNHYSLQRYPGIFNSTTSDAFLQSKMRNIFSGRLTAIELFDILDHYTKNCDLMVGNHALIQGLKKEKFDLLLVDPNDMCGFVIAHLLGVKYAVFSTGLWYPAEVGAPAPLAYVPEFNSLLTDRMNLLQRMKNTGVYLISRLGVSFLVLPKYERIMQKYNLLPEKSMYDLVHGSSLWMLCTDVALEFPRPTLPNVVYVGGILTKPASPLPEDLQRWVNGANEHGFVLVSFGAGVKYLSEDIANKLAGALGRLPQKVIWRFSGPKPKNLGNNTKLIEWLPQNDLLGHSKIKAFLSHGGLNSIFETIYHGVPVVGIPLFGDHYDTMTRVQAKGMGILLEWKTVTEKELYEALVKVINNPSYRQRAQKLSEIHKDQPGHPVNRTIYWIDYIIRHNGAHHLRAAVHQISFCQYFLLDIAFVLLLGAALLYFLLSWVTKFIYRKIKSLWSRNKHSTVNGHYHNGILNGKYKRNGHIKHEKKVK
Nature of the assay: CGT enzyme assay, RapidFire/MS/MS readout (Table 1 ranges with one asterisk *). The format is biochemical. The settings on record: RapidFire method (range with one asterisk *). The gist of the method:
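IC50s come from variable-slope dose-response fits of internal-standard-normalized C6-NBD-dihydro-galactosylceramide, measured by RapidFire/MS/MS (ESI negative). Reactions: 1 h, 37 °C, human CGT-expressing CHO lysate (4 μg), 0.001–50 μM compound, 10 μM NBD-dihydro-ceramide, 17.5 μM UDP-galactose, 0.5% DMSO, pH 7.2; 0.01% Tween 80 added for ** values.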
Compound `NC1CC2CCC(C1)N2C(=O)[C@@H](NS(=O)(=O)c1ccc2c(cnn2CC2CCCC2)c1)C(F)(F)c1ccc(C(F)(F)F)cc1` (stereo partly drawn) [Compound 92-1, N-((2R)-3-(3-amino-8-azabicyclo[3.2.1]octan-8-yl)-1,1-difluoro-3-oxo-1-(4-(trifluoromethyl)phenyl)propan-2-yl)-1-(cyclopentylmethyl)-1H-indazole-5-sulfonamide] gave an IC50 of under 1 µM.
In the case of `NC1CC2CCC(C1)N2C(=O)[C@H](NS(=O)(=O)c1ccc2c(cnn2CC2CCCC2)c1)C(F)(F)c1ccc(C(F)(F)F)cc1` (stereo partly drawn) [Compound 92-2, N-((2S)-3-(3-amino-8-azabicyclo[3.2.1]octan-8-yl)-1,1-difluoro-3-oxo-1-(4-(trifluoromethyl)phenyl)propan-2-yl)-1-(cyclopentylmethyl)-1H-indazole-5-sulfonamide] it was 10 to 30 µM; in that of `NC1CCN(C(=O)[C@@H](NS(=O)(=O)c2ccc3c(cnn3CC3CCCC3)c2)C(F)(F)c2ccc(C(F)(F)F)cc2)CC1` [Compound 93-1, (R)—N-(3-(4-aminopiperidin-1-yl)-1,1-difluoro-3-oxo-1-(4-(trifluoromethyl)phenyl)propan-2-yl)-1-(cyclopentylmethyl)-1H-indazole-5-sulfonamide], 1 to 10 µM; in that of `NC1CCN(C(=O)[C@H](NS(=O)(=O)c2ccc3c(cnn3CC3CCCC3)c2)C(F)(F)c2ccc(C(F)(F)F)cc2)CC1` [Compound 93-2, (S)—N-(3-(4-aminopiperidin-1-yl)-1,1-difluoro-3-oxo-1-(4-(trifluoromethyl)phenyl)propan-2-yl)-1-(cyclopentylmethyl)-1H-indazole-5-sulfonamide], 30 to 100 µM.
`NC1CC2CCC(C1)N2C(=O)[C@@H](NS(=O)(=O)c1ccc2c(cnn2CC2CCCC2)c1)C(F)(F)c1ccc(-c2ccc(Cl)cc2)cc1` (stereo partly drawn) [Compound 94-1, N-((2R)-3-(3-amino-8-azabicyclo[3.2.1]octan-8-yl)-1-(4′-chloro-[1,1′-biphenyl]-4-yl)-1,1-difluoro-3-oxopropan-2-yl)-1-(cyclopentylmethyl)-1H-indazole-5-sulfonamide] showed an IC50 of 1 to 10 µM.
To `NC1CC2CCC(C1)N2C(=O)[C@H](NS(=O)(=O)c1ccc2c(cnn2CC2CCCC2)c1)C(F)(F)c1ccc(-c2ccc(Cl)cc2)cc1` (stereo partly drawn) [Compound 94-2, N-((2S)-3-(3-amino-8-azabicyclo[3.2.1]octan-8-yl)-1-(4′-chloro-[1,1′-biphenyl]-4-yl)-1,1-difluoro-3-oxopropan-2-yl)-1-(cyclopentylmethyl)-1H-indazole-5-sulfonamide] belongs 10 to 30 µM; to `NC1CCN(C(=O)[C@@H](NS(=O)(=O)c2ccc3c(cnn3CC3CCCC3)c2)C(F)(F)c2ccc(-c3ccc(Cl)cc3)cc2)CC1` [Compound 95-1, (R)—N-(3-(4-aminopiperidin-1-yl)-1-(4′-chloro-[1,1′-biphenyl]-4-yl)-1,1-difluoro-3-oxopropan-2-yl)-1-(cyclopentylmethyl)-1H-indazole-5-sulfonamide], under 1 µM; to `NC1CCN(C(=O)[C@H](NS(=O)(=O)c2ccc3c(cnn3CC3CCCC3)c2)C(F)(F)c2ccc(-c3ccc(Cl)cc3)cc2)CC1` [Compound 95-2, (S)—N-(3-(4-aminopiperidin-1-yl)-1-(4′-chloro-[1,1′-biphenyl]-4-yl)-1,1-difluoro-3-oxopropan-2-yl)-1-(cyclopentylmethyl)-1H-indazole-5-sulfonamide], 10 to 30 µM.
The compound `NC1CCN(C(=O)[C@@H](NS(=O)(=O)c2ccc3cc(OC4CCCC4)ccc3c2)C(F)(F)c2ccc(OC3CCCCC3)cc2)CC1` [Compound 97-1, (R)—N-(3-(4-aminopiperidin-1-yl)-1-(4-(cyclohexyloxy)phenyl)-1,1-difluoro-3-oxopropan-2-yl)-6-(cyclopentyloxy)naphthalene-2-sulfonamide] had an IC50 of 1 to 10 µM.
In the case of `NC1CCN(C(=O)[C@H](NS(=O)(=O)c2ccc3cc(OC4CCCC4)ccc3c2)C(F)(F)c2ccc(OC3CCCCC3)cc2)CC1` [Compound 97-2, (S)—N-(3-(4-aminopiperidin-1-yl)-1-(4-(cyclohexyloxy)phenyl)-1,1-difluoro-3-oxopropan-2-yl)-6-(cyclopentyloxy)naphthalene-2-sulfonamide] it was 1 to 10 µM; in that of `NC1CCN(C(=O)[C@@H](NS(=O)(=O)c2ccc3cc(OC4CCCC4)ccc3c2)C(F)(F)c2ccc(Cl)cc2)CC1` [Compound 98-1, (R)—N-(3-(4-aminopiperidin-1-yl)-1-(4-chlorophenyl)-1,1-difluoro-3-oxopropan-2-yl)-6-(cyclopentyloxy)naphthalene-2-sulfonamide], 1 to 10 µM; in that of `NC1CCN(C(=O)[C@H](NS(=O)(=O)c2ccc3cc(OC4CCCC4)ccc3c2)C(F)(F)c2ccc(Cl)cc2)CC1` [Compound 98-2, (S)—N-(3-(4-aminopiperidin-1-yl)-1-(4-chlorophenyl)-1,1-difluoro-3-oxopropan-2-yl)-6-(cyclopentyloxy)naphthalene-2-sulfonamide], 10 to 30 µM.
Consider `NC1CCN(C(=O)[C@@H](NS(=O)(=O)c2ccc3c(cnn3CC3CCCC3)c2)C(F)(F)c2ccc(Cl)cc2)CC1` [Compound 99-1, (R)—N-(3-(4-aminopiperidin-1-yl)-1-(4-chlorophenyl)-1,1-difluoro-3-oxopropan-2-yl)-1-(cyclopentylmethyl)-1H-indazole-5-sulfonamide], for which the IC50 lay in the range of 1 to 10 µM.
`NC1CCN(C(=O)[C@H](NS(=O)(=O)c2ccc3c(cnn3CC3CCCC3)c2)C(F)(F)c2ccc(Cl)cc2)CC1` [Compound 99-2, (S)—N-(3-(4-aminopiperidin-1-yl)-1-(4-chlorophenyl)-1,1-difluoro-3-oxopropan-2-yl)-1-(cyclopentylmethyl)-1H-indazole-5-sulfonamide] gave an IC50 of 30 to 100 µM.
In turn, `CN([C@H](C(=O)N1CCC(N)CC1)C(F)(F)c1ccc(Cl)cc1)S(=O)(=O)c1ccc2cc(OC3CCCC3)ccc2c1` [Compound 100-1, (R)—N-(3-(4-aminopiperidin-1-yl)-1-(4-chlorophenyl)-1,1-difluoro-3-oxopropan-2-yl)-6-(cyclopentyloxy)-N-methylnaphthalene-2-sulfonamide] registered an IC50 of under 1 µM.
In the case of `CN([C@@H](C(=O)N1CCC(N)CC1)C(F)(F)c1ccc(Cl)cc1)S(=O)(=O)c1ccc2cc(OC3CCCC3)ccc2c1` [Compound 100-2, (S)—N-(3-(4-aminopiperidin-1-yl)-1-(4-chlorophenyl)-1,1-difluoro-3-oxopropan-2-yl)-6-(cyclopentyloxy)-N-methylnaphthalene-2-sulfonamide] it was 10 to 30 µM; in that of `NC1CC2CCC(C1)N2C(=O)[C@@H](NS(=O)(=O)c1ccc2cc(OC3CCCC3)ccc2c1)C(F)(F)c1ccc(-c2ccc(Cl)s2)cc1` (stereo partly drawn) [Compound 101-1, N-((2R)-3-(3-amino-8-azabicyclo[3.2.1]octan-8-yl)-1-(4-(5-chlorothiophen-2-yl)phenyl)-1,1-difluoro-3-oxopropan-2-yl)-6-(cyclopentyloxy)naphthalene-2-sulfonamide], under 1 µM.
In the case of `NC1CC2CCC(C1)N2C(=O)[C@H](NS(=O)(=O)c1ccc2cc(OC3CCCC3)ccc2c1)C(F)(F)c1ccc(-c2ccc(Cl)s2)cc1` (stereo partly drawn) [Compound 101-2, N-((2S)-3-(3-amino-8-azabicyclo[3.2.1]octan-8-yl)-1-(4-(5-chlorothiophen-2-yl)phenyl)-1,1-difluoro-3-oxopropan-2-yl)-6-(cyclopentyloxy)naphthalene-2-sulfonamide] it was 1 to 10 µM; in that of `NC1CC2CCC(C1)N2C(=O)[C@@H](NS(=O)(=O)c1ccc2cc(OC3CCCC3)ccc2c1)C(F)(F)c1ccc(OC2CCCCC2)cc1` (stereo partly drawn) [Compound 102-1, N-((2R)-3-(3-amino-8-azabicyclo[3.2.1]octan-8-yl)-1-(4-(cyclohexyloxy)phenyl)-1,1-difluoro-3-oxopropan-2-yl)-6-(cyclopentyloxy) naphthalene-2-sulfonamide], under 1 µM.
To `NC1CC2CCC(C1)N2C(=O)[C@H](NS(=O)(=O)c1ccc2cc(OC3CCCC3)ccc2c1)C(F)(F)c1ccc(OC2CCCCC2)cc1` (stereo partly drawn) [Compound 102-2, N-((2S)-3-(3-amino-8-azabicyclo[3.2.1]octan-8-yl)-1-(4-(cyclohexyloxy)phenyl)-1,1-difluoro-3-oxopropan-2-yl)-6-(cyclopentyloxy)naphthalene-2-sulfonamide] belongs 1 to 10 µM; to `NC1CCN(C(=O)[C@@H](NS(=O)(=O)c2ccc(OCC3CCCCC3)cc2)C(F)(F)c2ccc(OC3CCCCC3)cc2)CC1` [Compound 103-1, (R)—N-(3-(4-aminopiperidin-1-yl)-1-(4-(cyclohexyloxy)phenyl)-1,1-difluoro-3-oxopropan-2-yl)-4-(cyclohexylmethoxy)benzenesulfonamide], under 1 µM.
For the compound `NC1CCN(C(=O)[C@H](NS(=O)(=O)c2ccc(OCC3CCCCC3)cc2)C(F)(F)c2ccc(OC3CCCCC3)cc2)CC1` [Compound 103-2, (S)—N-(3-(4-aminopiperidin-1-yl)-1-(4-(cyclohexyloxy)phenyl)-1,1-difluoro-3-oxopropan-2-yl)-4-(cyclohexylmethoxy)benzenesulfonamide], the IC50 lay within 30 to 100 µM.
